# Results from US20020010157A1, “Composition and method for controlling insect pests and diseases on plants” (priority 2000, published 2002).
# How the values were obtained:
# Aphids [1] = experiment: Controlled environment, 2% glyceride emulsion: aphid survival on apple; assay type: in vivo; conditions: ‘Delicious’ apple
# Description: (§1) Plant materials used for tests were either branches obtained from the fields or trees grew in pots in a green house.
# (§2) Plants growing in pot were inoculated with pests or pathogen and sprayed with 2% glyceride emulsions. Death rate of pests or number of lesions was evaluated one to three weeks after treatment.
# (§3) Since mineral oil has been widely used for insect pest and disease control in agriculture (Taschenberg, 1952; Walsh et al., 2000), it was included in the experiments for comparison.
# Mites [2] = experiment: Controlled environment, 2% glyceride emulsion: mite survival on apple; assay type: in vivo, European red mite (ERM); conditions: ‘Delicious’ apple
# Excerpt: as §1
# (§4) To test the effects of different glycerides on over winter pests such as San Jose Scale (SJS) or European red mite (ERM) on pome or stone fruit trees, stems from dormant ‘Delicious’ apple trees and ‘Feng Huang’ peach trees infested with SJS were collected and dipped in 2% of different glyceride emulsions with the untreated served as control. Stems were then trimmed to 25 cm long by removing from the base, put in a plate with the base submerging in 1-cm thick water, and incubated at 23 degree C for 2 weeks in a chamber. After incubation, 15 overwintering SJS (‘Black-cap’ stage of first instar) per stem were examined microscopically and assessed for viability. Apple or peach stems containing ERM eggs were collected in late dormant and treated as described above and incubated at 28 degree C., 80% relative humidity, and 16-hour light/8-hour dark cycle. Mite viability was evaluated by the following method. Stem segment were impaled onto insect pins that had been driven through 10×12 cm white posterboard containing a thin coat of sticky gel to trip newly hatched mites and facilitate their counting. Eggs were examined every 2 days until hatch was complete. […]
# Psylla = experiment: Controlled environment, 2% glyceride emulsion: psylla survival on apple; assay type: in vivo; conditions: ‘Delicious’ apple
# Description: as §1, §2, §3
# Whitefly [3] = experiment: Controlled environment, 2% glyceride emulsion: whitefly survival on apple; assay type: in vivo; conditions: ‘Delicious’ apple
# Description: as §1, §2, §3
# SJS = experiment: Controlled environment, 2% glyceride emulsion: SJS survival on apple; assay type: in vivo, San Jose Scale (SJS); conditions: ‘Delicious’ apple
# Excerpt: as §1, §4
# Aphids [4] = experiment: Controlled environment, 2% glyceride emulsion: aphid survival on orange; assay type: in vivo; conditions: ‘Qi Cheng’ orange
# Description: as §1, §2, §3
# Mite = experiment: Controlled environment, 2% glyceride emulsion: mite survival on orange; assay type: in vivo; conditions: ‘Qi Cheng’ orange
# Description: as §1, §2, §3
# Aphids [5] = experiment: Controlled environment, 2% glyceride emulsion: aphid survival on cotton; assay type: in vivo
# Description: as §1, §2, §3
# Whitefly [6] = experiment: Controlled environment, 2% glyceride emulsion: whitefly survival on cotton; assay type: in vivo
# Description: as §1, §2, §3
# Aphids [7] = experiment: Controlled environment, 2% glyceride emulsion: aphid survival on wheat; assay type: in vivo
# Description: as §1, §2, §3
# Mites [8] = experiment: Controlled environment, 2% glyceride emulsion: mite survival on wheat; assay type: in vivo
# Description: as §1, §2, §3
# Aphids [9] = experiment: Controlled environment, 2% glyceride emulsion: aphid survival on tomato; assay type: in vivo
# Description: as §1, §2, §3
# Mites [10] = experiment: Controlled environment, 2% glyceride emulsion: mite survival on tomato; assay type: in vivo
# Description: as §1, §2, §3
# Aphids [11] = experiment: Controlled environment, 2% glyceride emulsion: aphid survival on cabbage; assay type: in vivo
# Description: as §1, §2, §3
# Whitefly [12] = experiment: Controlled environment, 2% glyceride emulsion: whitefly survival on cabbage; assay type: in vivo
# Description: as §1, §2, §3
# Scab = experiment: Controlled environment, 2% glyceride: scab severity on apple; assay type: in vivo; conditions: ‘Delicious’ apple
# Description: as §1, §2, §3
# Powdery mildew [13] = experiment: Controlled environment, 2% glyceride: powdery mildew severity on apple; assay type: in vivo; conditions: ‘Delicious’ apple
# Description: as §1, §2, §3
# Bacterial canker = experiment: Controlled environment, 2% glyceride: bacterial canker severity on peach; assay type: in vivo; conditions: ‘Feng Hung’ peach
# Description: as §1, §2, §3
# Powdery mildew [14] = experiment: Controlled environment, 2% glyceride: powdery mildew severity on peach; assay type: in vivo; conditions: ‘Feng Hung’ peach
# Description: as §1, §2, §3
# Leaf spot = experiment: Controlled environment, 2% glyceride: leaf spot severity on grape; assay type: in vivo; conditions: ‘Long Yan’ grape
# Description: as §1, §2, §3
# Powdery mildew [15] = experiment: Controlled environment, 2% glyceride: powdery mildew severity on grape; assay type: in vivo; conditions: ‘Long Yan’ grape
# Description: as §1, §2, §3
# Brown rot = experiment: Controlled environment, 2% glyceride: brown rot severity on orange; assay type: in vivo; conditions: ‘Qi Cheng’ orange
# Description: as §1, §2, §3
# Psorosis = experiment: Controlled environment, 2% glyceride: psorosis severity on orange; assay type: in vivo; conditions: ‘Qi Cheng’ orange
# Description: as §1, §2, §3
# Fusarium wilt [16] = experiment: Controlled environment, 2% glyceride emulsion: Fusarium wilt severity on cotton; assay type: in vivo
# Description: as §1, §2, §3
# Verticillium wilt [17] = experiment: Controlled environment, 2% glyceride emulsion: Verticillium wilt severity on cotton; assay type: in vivo
# Description: as §1, §2, §3
# Barley strip = experiment: Controlled environment, 2% glyceride emulsion: Barley strip severity on wheat; assay type: in vivo
# Description: as §1, §2, §3
# leaf scald = experiment: Controlled environment, 2% glyceride emulsion: leaf scald severity on wheat; assay type: in vivo
# Description: as §1, §2, §3
# Leaf-spot = experiment: Controlled environment, 2% glyceride emulsion: leaf-spot severity on cabbage; assay type: in vivo
# Description: as §1, §2, §3
# Verticillium wilt [18] = experiment: Controlled environment, 2% glyceride emulsion: Verticillium wilt severity on cabbage; assay type: in vivo
# Description: as §1, §2, §3
# Bacterial ring rot = experiment: Controlled environment, 2% glyceride emulsion: bacterial ring rot severity on potato; assay type: in vivo
# Description: as §1, §2, §3
# Verticillium wilt [19] = experiment: Controlled environment, 2% glyceride emulsion: Verticillium wilt severity on potato; assay type: in vivo
# Description: as §1, §2, §3
# Bacterial Spot = experiment: Controlled environment, 2% glyceride emulsion: bacterial spot severity in tomatoes; assay type: in vivo
# Description: as §1, §2, §3
# Verticillium wilt [20] = experiment: Controlled environment, 2% glyceride emulsion: Verticillium wilt severity in tomatoes; assay type: in vivo
# Description: as §1, §2, §3
# Fusarium wilt [21] = experiment: Controlled environment, 2% glyceride emulsion: Fusarium wilt severity in tomatoes; assay type: in vivo
# Description: as §1, §2, §3
# TMV (I) = experiment: Controlled environment, 2% glyceride emulsion: TMV (I) severity in tomatoes; assay type: in vivo, tobacco mosaic virus (TMV I)
# Description: as §1, §2, §3
# TMV (II) = experiment: Controlled environment, 2% glyceride emulsion: TMV (II) severity in tomatoes; assay type: in vivo, tomato mosaic virus (TMV II)
# Description: as §1, §2, §3
# TICV = experiment: Controlled environment, 2% glyceride emulsion: TICV severity in tomatoes; assay type: in vivo, tomato infectious chlorosis virus (TICV)
# Description: as §1, §2, §3
# TSWV = experiment: Controlled environment, 2% glyceride emulsion: TSWV severity in tomatoes; assay type: in vivo, tomato spotted wilt virus (TSWV)
# Description: as §1, §2, §3
smiles,measurement,setting,value
CCCCCCCCCCCC(=O)OCC(O)CO (centres unmarked) [Monolaurin],"pest survival (%), Apples, Aphids",Aphids [1],34e %
same,"pest survival (%), Apples, Mites",Mites [2],0g %
same,"pest survival (%), Apples, Psylla",Psylla,35e %
same,"pest survival (%), Apples, Whitefly",Whitefly [3],31e %
same,"pest survival (%), Apples, SJS",SJS,0f %
same,"pest survival (%), Oranges, Aphids",Aphids [4],31e %
same,"pest survival (%), Oranges, Mite",Mite,39e %
same,"pest survival (%), Cotton, Aphids",Aphids [5],30e %
same,"pest survival (%), Cotton, Whitefly",Whitefly [6],31f %
same,"pest survival (%), Wheat, Aphids",Aphids [7],21e %
same,"pest survival (%), Wheat, Mites",Mites [8],33e %
same,"pest survival (%), Tomato, Aphids",Aphids [9],27e %
same,"pest survival (%), Tomato, Mites",Mites [10],34e %
same,"pest survival (%), Cabbage, Aphids",Aphids [11],17e %
same,"pest survival (%), Cabbage, Whitefly",Whitefly [12],28f %
same,"disease severity, Apples, Scab",Scab,14f^z % of untreated control
same,"disease severity, Apples, Powdery mildew",Powdery mildew [13],18f % of untreated control
same,"disease severity, Peaches, Bacterial canker",Bacterial canker,24f % of untreated control
same,"disease severity, Peaches, Powdery mildew",Powdery mildew [14],13g % of untreated control
same,"disease severity, Grapes, Leaf spot",Leaf spot,37f % of untreated control
same,"disease severity, Grapes, Powdery mildew",Powdery mildew [15],16g % of untreated control
same,"disease severity, Oranges, Brown rot",Brown rot,34e % of untreated control
same,"disease severity, Oranges, Psorosis",Psorosis,32d % of untreated control
same,"disease severity, Cotton, Fusarium wilt",Fusarium wilt [16],43e^z % of untreated control
same,"disease severity, Cotton, Verticillium wilt",Verticillium wilt [17],48d % of untreated control
same,"disease severity, Wheat, Barley strip",Barley strip,19f % of untreated control
same,"disease severity, Wheat, leaf scald",leaf scald,32f % of untreated control
same,"disease severity, Cabbage, Leaf-spot",Leaf-spot,23f % of untreated control
same,"disease severity, Cabbage, Verticillium wilt",Verticillium wilt [18],46de % of untreated control
same,"disease severity, Potato, Bacterial ring rot",Bacterial ring rot,47e % of untreated control
same,"disease severity, Potato, Verticillium wilt",Verticillium wilt [19],37e % of untreated control
same,"disease severity, Bacterial Spot",Bacterial Spot,18f^z % of untreated control
same,"disease severity, Verticillium wilt",Verticillium wilt [20],26f % of untreated control
same,"disease severity, Fusarium wilt",Fusarium wilt [21],29f % of untreated control
same,"disease severity, TMV (I)",TMV (I),37e % of untreated control
same,"disease severity, TMV (II)",TMV (II),43d % of untreated control
same,"disease severity, TICV",TICV,33f % of untreated control
same,"disease severity, TSWV",TSWV,27e % of untreated control
